From patent US9375459B2, “Cyclic peptides with an anti-neoplasic and anti-angiogenic activity” (priority 2011, dated 2016)
“Also recorded” adds a separate entry of the source. Where two headings read alike, the source gives them in different places. Where a SMILES comes first, the peptide text is derived from it. Bridges are numbered along the chain shown (N, C = ends). Where no end group is shown, it is not given here.

Assays:
[1] = test system: human colon cancer Ls174T cell line implanted in NIH athymic mice; test: Ls174T colon cancer tumor model in athymic mice; format: in vivo; details: FIG. 19B
Method: The Ls174T colon cancer tumor model in athymic mice was used to evaluate the potential effect of the linear Gly255-Ser274 segment (peptide N06P87), compared to the CIGB370r polypeptide, on human tumor models. Human tumor cells were administered by subcutaneous route, and the molecules of interest or the vehicle were administered by intratumor route (100 μL). After 13 days, when tumors were implanted and palpable, administration schedules started for the molecules of interest (FIG. 8A). The peptide N06P87 was administered in down-scaled doses: two administrations of 600 μM each every 48 h, followed by 4 administrations of 330 μM each every 48 h, and lastly 4 administrations of 90 μM each every 72 h. The CIGB370r peptide was administered weekly for 4 weeks.
The effects of the linear segment Gly255-Ser274 (peptide N06P87) and two other model cyclic peptides of the present invention were compared to the effect of the CIGB370r polypeptide in the Ls174T human colon cancer model in athymic NIH mice, with the dose and schedule shown in FIG. 19. After 13 days, once the tumors were implanted and palpable, biomolecules began to be administered (FIG. 19 A). The peptides were administered in down-scaled doses: 2 administrations of 600 μM every 48 h, followed by 4 administrations of 330 μM each every 48 h, and 4 final 90 μM administrations every 72 h. […]

[2] = test system: human tumor cell lines (A549, A375, PC-3, U87)
TC-1 tumor = test: TC-1 subcutaneous tumor model in C57BL/6 mice; format: in vivo; details: 80 μM; for survival: intratumoral route
Method: Six-to-eight weeks-old, C57BL/6 female mice of 22 g of weight were supplied by the National Center for Laboratory Animal Production (CENPALAB, Havana, Cuba) and housed under pathogen-free conditions at the Bioterium of the Center for Genetic Engineering and Biotechnology (CIGB). Experiments were carried out in agreement with regulations for proper handling and care of laboratory animals. Tumor volume was measured on each case (estimated by the formula: volume=a^2×(b/2), where a is the width and b is the length of the tumor) and animal survival was evaluated.
Survival was compared between groups by the Logrank test. The statistic parameters were obtained with the aid of the GraphPad Prism 4.0 software (GraphPad Software, San Diego, Calif., USA).
C57BL/6 mice were injected in the right flank by subcutaneous route (s.c.) with 50 000 TC-1 cells. When tumors were detectable, mice were randomized into treatment groups to evaluate the treatment with the peptides subject of study, to evaluate them by different administration routes. Tumor-bearing animals received 6 administrations in alternate days, with 80 μM of the subject peptide, solely received the vehicle as control. Five mice were used for each group. Animals were housed under pathogen-free conditions, and procedures were conducted in agreement with good practices for laboratory animal handling and care.

M14 (melanoma) = test: SRB cytotoxicity on M14 melanoma cells; format: cell-based; details: M14 human melanoma cells
Method: (§1) Negative control cells were cultured on a volume of vehicle equal to that of the experimental samples. An “x-y” curve (dose-response) was established with the percent of surviving cells, compared in respect to the negative control cells, and the following parameters were estimated: 50% growth inhibition (GI50); Total growth inhibition (TGI); and the lethal concentration 50 (LC50), that is the concentration causing the 50% of cell death (Boyd M R, Paull K D, and Rubinstein L R (1992) “Data display and analysis strategies for the NCI Disease Oriented In-Vitro Antitumor Drug Screen, in Cytotoxic Anticancer Drugs: Models and Concept for Drug Discovery and Development” (Baleriote F A, Corbett T H and Baker L H eds) pp 11-34, Kluwer Academia Publishers, Boston).
(§2) Were considered as cytotoxic peptides all those peptides being able of inhibiting 50% of the cellular proliferation, in a dose-dependent manner, and showing GI50 values below 100 μM, at least in one of the cell lines studied. The human tumor cell lines used were: HEp-2 (larynx carcinoma), A549 (lung epithelial adenocarcinoma), M14 (melanoma), Colo 205 (colon adenocarcinoma), Ls174T (colon adenocarcinoma), LnCAP (prostate carcinoma), PC-3 (prostate carcinoma) and H 125 (non-small cell lung adenocarcinoma). Represented are primary sequences for the designed peptides, the code used for its generation and their respective cytotoxic capacity on human tumor cells.
The inability of peptide N06P89 (cyclized by two cysteins located at both N- and C-termini) to inhibit cellular proliferation in M14 human melanoma tumor cells is shown in FIG. 7. […] At the same FIG. 7, it is also shown the need for blocking the C-terminus (for example, an amide group or other modification) to achieve the cytotoxic capacity expected for the peptide region of interest.

human tumor cells = test: Cytotoxic activity screening of peptide library on human tumor cell lines, SRB method; format: cell-based; details: for Cytotoxic activity in vitro: SRB method, cytotoxic = dose-dependent 50% inhibition of proliferation, GI50 below 100 μM in at least one cell line
Method: as §1, §2

[3] = test system: Ls174T (colon adenocarcinoma); test: SRB cytotoxicity on Ls174T cells; format: cell-based, human
Method: as §1
as §2, with “Represented are primary sequences for the designed peptides, the code used for its generation and their respective cytotoxic capacity on human tumor cells.” left out

[4] = test system: Colo 205 (colon adenocarcinoma); test: SRB cytotoxicity on Colo 205 cells; format: cell-based, human
Method: as §1
as §2, with “Represented are primary sequences for the designed peptides, the code used for its generation and their respective cytotoxic capacity on human tumor cells.” left out

[5] = test system: A549 (lung epithelial adenocarcinoma); test: SRB cytotoxicity on A549 cells; format: cell-based, human
Method: as §1
as §2, with “Represented are primary sequences for the designed peptides, the code used for its generation and their respective cytotoxic capacity on human tumor cells.” left out

HEp-2 (larynx carcinoma) = test: SRB cytotoxicity on HEp-2 cells; format: cell-based, human
Method: as §1
as §2, with “Represented are primary sequences for the designed peptides, the code used for its generation and their respective cytotoxic capacity on human tumor cells.” left out

[6] = peptide combined with prodigiosin

CC(C)C[C@@H]1NC(=O)[C@H](Cc2ccccc2)NC(=O)[C@H](CC(=O)O)NC(=O)[C@H](CCCNC(=N)N)NC(=O)CNC(=O)[C@H]([C@@H](C)O)NC(=O)[C@H](CC(N)=O)NC(=O)[C@@H](N)CSSC[C@@H](C(N)=O)NC1=O [Peptide A08P25s-s, CNTGRDFLC] (H-CNTGRDFLC-NH2; disulfide 1-9)
decrease of the cytotoxic activity of prodigiosin on primary fibroblasts (primary fibroblasts): at least one order of magnitude
T/C values related to the mean tumor volume [1]: 35%
effect on the cytotoxic activity of prodigiosin [2]: enhanced
GI50 values [2, 6]: nm range
survival (TC-1 tumor): intermediate survival block

CC(C)C[C@@H]1NC(=O)[C@H](Cc2ccccc2)NC(=O)[C@H](CC(=O)O)NC(=O)[C@H](CCCNC(=N)N)NC(=O)CNC(=O)[C@H]([C@@H](C)O)NC(=O)[C@H](CC(N)=O)NC(=O)[C@@H](NC(=O)[C@H](CC(N)=O)NC(=O)[C@H](Cc2ccccc2)NC(=O)CNC(=O)[C@H](Cc2ccc(O)cc2)NC(=O)[C@@H](NC(=O)[C@@H](NC(=O)[C@H](CC(=O)O)NC(=O)CN)[C@@H](C)O)C(C)C)CSSC[C@@H](C(=O)N[C@H](C(=O)N[C@H](C(=O)N[C@@H](CO)C(N)=O)[C@@H](C)O)[C@@H](C)O)NC1=O [Peptide A08P28s-s] (H-GDTVYGFNCNTGRDFLCTTS-NH2; disulfide 9-17)
decrease of the cytotoxic activity of prodigiosin on primary fibroblasts (primary fibroblasts; [6]): at least one order of magnitude
GI50 values [2, 6]: nm range
effect on the cytotoxic activity of prodigiosin [2, 6]: enhanced
survival (TC-1 tumor): intermediate survival block

CC[C@H](C)[C@H](NC(=O)[C@H](CC(N)=O)NC(=O)[C@@H](NC(=O)[C@H](CO)NC(=O)[C@H](CC(C)C)NC(=O)[C@H](CC(=O)O)NC(=O)[C@@H](NC(=O)[C@@H](NC(=O)[C@H](CC(N)=O)NC(=O)[C@H](CO)NC(=O)[C@H](CO)NC(=O)[C@H](C)NC(=O)[C@@H](N)CC(N)=O)C(C)C)[C@@H](C)O)C(C)C)C(=O)NCC(=O)NCC(=O)N[C@@H](Cc1c[nH]cn1)C(=O)N[C@@H](CCC(N)=O)C(=O)N[C@@H](C)C(=O)N1CCC[C@H]1C(=O)N[C@@H](CC(=O)O)C(N)=O [Peptide E02P04] (H-NASSNVTDLSVNIGGHQAPD-NH2)
cytotoxic activity / inhibition of cellular proliferation (M14 (melanoma)): showed activity
cytotoxic activity / inhibition of cellular proliferation (M14 (melanoma); listed as E07P04): showed cytotoxic activity
Cytotoxic activity in vitro (human tumor cells): + (Symbol + indicates the presence of cytotoxicity)

CC(C)[C@H](NC(=O)[C@@H](NC(=O)[C@H](CC(=O)O)NC(=O)CN)[C@@H](C)O)C(=O)N[C@H]1CSSC[C@@H](C(=O)N[C@@H](CO)C(=O)N[C@H](C(=O)N[C@H](C(=O)N[C@@H](CO)C(N)=O)[C@@H](C)O)[C@@H](C)O)NC(=O)[C@H](Cc2ccccc2)NC(=O)[C@H](CC(=O)O)NC(=O)[C@H](CCCNC(=N)N)NC(=O)CNC(=O)[C@H]([C@@H](C)O)NC(=O)[C@H](CC(N)=O)NC(=O)[C@H](CO)NC(=O)[C@H](CC(N)=O)NC(=O)[C@H](Cc2ccccc2)NC(=O)CNC1=O [Peptide J08P46s-s] (H-GDTVCGFNSNTGRDFCSTTS-NH2; disulfide 5-16)
decrease of the cytotoxic activity of prodigiosin on primary fibroblasts (primary fibroblasts; [6]): at least one order of magnitude
GI50 values [2, 6]: nm range
effect on the cytotoxic activity of prodigiosin [2, 6]: enhanced
survival (TC-1 tumor): intermediate survival block

CC(C)C[C@@H]1NC(=O)[C@H](Cc2ccccc2)NC(=O)[C@H](CC(=O)O)NC(=O)[C@H](CCCNC(=N)N)NC(=O)CNC(=O)[C@H]([C@@H](C)O)NC(=O)[C@H](CC(N)=O)NC(=O)[C@H](CO)NC(=O)[C@H](CC(N)=O)NC(=O)[C@@H](NC(=O)CNC(=O)[C@H](Cc2ccc(O)cc2)NC(=O)[C@@H](NC(=O)[C@@H](NC(=O)[C@H](CC(=O)O)NC(=O)CN)[C@@H](C)O)C(C)C)CSSC[C@@H](C(N)=O)NC(=O)CNC(=O)[C@H]([C@@H](C)O)NC(=O)[C@H](CO)NC1=O [Peptide J08P48s-s] (H-GDTVYGCNSNTGRDFLSTGC-NH2; disulfide 7-20)
decrease of the cytotoxic activity of prodigiosin on primary fibroblasts (primary fibroblasts; [6]): at least one order of magnitude
T/C values related to the mean tumor volume [1]: 35%
GI50 values [2, 6]: nm range
effect on the cytotoxic activity of prodigiosin [2, 6]: enhanced
survival by intratumoral and intraperitoneal routes (TC-1 tumor; i.t. or i.p., FIG. 17): reproduce the effects observed in this model for the CIGB370r polypeptide
survival (TC-1 tumor): highest survival block

CC(C)C[C@H](NC(=O)[C@H](Cc1ccccc1)NC(=O)[C@H](CC(=O)O)NC(=O)[C@H](CCCNC(=N)N)NC(=O)CNC(=O)[C@@H](NC(=O)[C@H](CC(N)=O)NC(=O)[C@H](CO)NC(=O)[C@H](CC(N)=O)NC(=O)[C@H](Cc1ccccc1)NC(=O)CNC(=O)[C@H](Cc1ccc(O)cc1)NC(=O)[C@@H](NC(=O)[C@@H](NC(=O)[C@H](CC(=O)O)NC(=O)CN)[C@@H](C)O)C(C)C)[C@@H](C)O)C(=O)N[C@@H](CO)C(=O)N[C@H](C(=O)N[C@H](C(=O)N[C@@H](CO)C(N)=O)[C@@H](C)O)[C@@H](C)O [Peptide N06P87] (H-GDTVYGFNSNTGRDFLSTTS-NH2)
GI50 [3]: < 100 µM
GI50 [4]: < 100 µM
GI50 [5]: < 100 µM
GI50 (HEp-2 (larynx carcinoma)): < 100 µM
cytotoxic / biological activity in vitro on tumor cells (human tumor cells; peptide library screening): active
change of cytotoxic activity by parenteral formulation buffers, pH and additives (human tumor cells; tumor cells from diverse histological origins): no increased on its cytotoxic activity

CC(C)C[C@@H]1NC(=O)[C@H](Cc2ccccc2)NC(=O)[C@H](CC(=O)O)NC(=O)[C@H](CCCNC(=N)N)NC(=O)CNC(=O)[C@H]([C@@H](C)O)NC(=O)[C@H](CC(N)=O)NC(=O)[C@H](CO)NC(=O)[C@H](CC(N)=O)NC(=O)[C@H](Cc2ccccc2)NC(=O)CNC(=O)[C@H](Cc2ccc(O)cc2)NC(=O)[C@H](C(C)C)NC(=O)[C@H]([C@@H](C)O)NC(=O)[C@H](CC(=O)O)NC(=O)CNC(=O)[C@@H](N)CSSC[C@@H](C(N)=O)NC(=O)[C@H](CO)NC(=O)[C@H]([C@@H](C)O)NC(=O)[C@H]([C@@H](C)O)NC(=O)[C@H](CO)NC1=O [Peptide N06P89] (H-CGDTVYGFNSNTGRDFLSTTSC-NH2; disulfide 1-22)
cytotoxic activity / inhibition of cellular proliferation (M14 (melanoma)): inability; also recorded: loss of peptide's biological activity

NSQKVIFAAWDAGGNDTFDF- amide (NSQKVIFAAWDAGGNDTFDF-NH2) [Peptide M07P38]
Cytotoxic activity in vitro (human tumor cells): − (symbol − indicates its absence, following criteria established in Example 2)
